# Test results reported in EP1743889A1, “Sustituted pyrazoline compounds, having predetermined stereochemistry, for reducing triglycerides in blood” (Laboratorios del Dr. Esteve S.A., priority 2005, dated 2007).
# Test system: triglycerides in blood plasma
# Test: In-vivo testing for regulation of triglycerides in blood plasma
# Parameters: species or system male mice B6 Lep ob/ob
# Conditions: obese mice fed with high fat diet; 30 mg/kg/day, p.o., 14 days treatment
# Text: This effect is probed in obese mice fed with high fat diet. In the following paragraphs the method of this study is described.
# The study is done using six weeks old male mice B6 Lep ob/ob, obtained from Charles River (France). Mice are divided in 3 groups: I (control), II (vehicle), III (example 0).
# The animals of the group I receive the standard diet (D-12450B, Research Diets, NJ, USA).
# The animals of the groups II and III are fed with a High Fat Diet (D-12492, Research Diets, NJ, USA), in both cases for 7 weeks (References 1 and 2).
# The animals of the groups III are fed with a High Fat Diet (D-12492, Research Diets, NJ, USA), in both cases for 7 weeks (References 1 and 2).
# At the end of the feeding period of 7 weeks, the treatment period (14 days) is started: Group II mice receive the vehicle (10 ml/kg/day, po, of the aqueous solution of acacia gum, 5% W/V). Group III is administered with 30 mg/kg/day, p.o., of the inventive compound (R)-5-(4-chlorophenyl)-1-(2,4-dichlorophenyl)-4,5-dihydro-pyrazole-3-carboxylic acid according to Example 0. […] The three groups of mice have the same diet than in the previous period.
# At the end of the 14 days period of treatment, the blood levels of triglicerides of the animals are determined.
# The analysis of the whole blood samples is done using test strips "Lipid panel" and the photometric Analyzer Cardio-Check Test System, from PA Instruments Polymer […]
smiles,measurement,value
"O=C(O)C1=NN(c2ccc(Cl)cc2Cl)[C@@H](c2ccc(Cl)cc2)C1 [Example 0, (R)-5-(4-chlorophenyl)-1-(2,4-dichlorophenyl)-4,5-dihydro-pyrazole-3-carboxylic acid]",blood levels of triglicerides,inhibitor of high blood levels of triglicerides
